According to PubChem BioAssay AID2060513 (Molecular Pharmacology Branch, DTP, NCI, 2025):

System: 299254-011-R-J1-PDC complex spheroids viability
Experiment: Anticancer human tumor 299254-011-R-J1-PDC patient-derived melanoma cell line growth inhibition [GQUAD]
Details: for IC50: curve of first compound; for viability, T/C: stronger effect = lower value; active = viability on the fitted dose curve at most 10% of control; inactive = the rest
Outline: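 Viability of tumor cells grown as complex spheroids with endothelial and stromal cells, exposed to drug combinations. Top concentration at or near clinical Cmax (else 10 microM), diluted in half-log increments.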

[1] = second compound 0.0316 µM, first compound 0.0316 µM
[2] = second compound 0.0316 µM, first compound 0.316 µM
[3] = second compound 0.1 µM, first compound 0.0316 µM
[4] = second compound 0.1 µM, first compound 0.316 µM
[5] = second compound 0.316 µM, first compound 0.0316 µM
[6] = second compound 0.316 µM, first compound 0.316 µM
[7] = second compound 1 µM, first compound 0.0316 µM
[8] = second compound 1 µM, first compound 0.316 µM
[9] = second compound 3.16 µM, first compound 0.0316 µM
[10] = second compound 3.16 µM, first compound 0.316 µM
[11] = second compound 10 µM, first compound 0.0316 µM
[12] = second compound 10 µM, first compound 0.316 µM
[13] = second compound 0.0316 µM, first compound 0.1 µM
[14] = second compound 0.0316 µM, first compound 1 µM
[15] = second compound 0.0316 µM, first compound 3.16 µM
[16] = second compound 0.0316 µM, first compound 10 µM
[17] = second compound 0.1 µM, first compound 0.1 µM
[18] = second compound 0.1 µM, first compound 1 µM
[19] = second compound 0.1 µM, first compound 3.16 µM
[20] = second compound 0.1 µM, first compound 10 µM
[21] = second compound 0.316 µM, first compound 0.1 µM
[22] = second compound 0.316 µM, first compound 1 µM
[23] = second compound 0.316 µM, first compound 3.16 µM
[24] = second compound 0.316 µM, first compound 10 µM
[25] = second compound 1 µM, first compound 0.1 µM
[26] = second compound 1 µM, first compound 1 µM
[27] = second compound 1 µM, first compound 3.16 µM
[28] = second compound 1 µM, first compound 10 µM
[29] = second compound 3.16 µM, first compound 0.1 µM
[30] = second compound 3.16 µM, first compound 1 µM
[31] = second compound 3.16 µM, first compound 3.16 µM
[32] = second compound 3.16 µM, first compound 10 µM
[33] = second compound 10 µM, first compound 0.1 µM
[34] = second compound 10 µM, first compound 1 µM
[35] = second compound 10 µM, first compound 3.16 µM
[36] = second compound 10 µM, first compound 10 µM
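Note: spheroids exposed to the agents for seven days before readout.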
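Throughout, for viability, T/C: percent viability relative to DMSO vehicle control wells = 100%.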

CC[C@@]1(O)C(=O)OCc2c1cc1n(c2=O)Cc2cc3c(CN(C)C)c(O)ccc3nc2-1 + CN(C)c1ccc(Nc2c3ccc(NC(=O)CCN4CCCC4)cc3nc3cc(NC(=O)CCN4CCCC4)ccc23)cc1
inactive: viability, T/C (second compound 0.0316 µM, first compound 0.000999 µM) 99.2% | viability, T/C (second compound 0.0316 µM, first compound 0.00316 µM) 105% | viability, T/C (second compound 0.0316 µM, first compound 0.00999 µM) 126% | viability, T/C [1] 107% | viability, T/C (second compound 0.0316 µM, first compound 0.0999 µM) 112% | viability, T/C [2] 90.4% | viability, T/C (second compound 0.1 µM, first compound 0.000999 µM) 120% | viability, T/C (second compound 0.1 µM, first compound 0.00316 µM) 93.2% | viability, T/C (second compound 0.1 µM, first compound 0.00999 µM) 98.7% | viability, T/C [3] 101% | viability, T/C (second compound 0.1 µM, first compound 0.0999 µM) 84.5% | viability, T/C [4] 90.1% | viability, T/C (second compound 0.316 µM, first compound 0.000999 µM) 108% | viability, T/C (second compound 0.316 µM, first compound 0.00316 µM) 120% | viability, T/C (second compound 0.316 µM, first compound 0.00999 µM) 108% | viability, T/C [5] 90.1% | viability, T/C (second compound 0.316 µM, first compound 0.0999 µM) 85.8% | viability, T/C [6] 101% | viability, T/C (second compound 1 µM, first compound 0.000999 µM) 106% | viability, T/C (second compound 1 µM, first compound 0.00316 µM) 105% | viability, T/C (second compound 1 µM, first compound 0.00999 µM) 115% | viability, T/C [7] 114% | viability, T/C (second compound 1 µM, first compound 0.0999 µM) 97.6% | viability, T/C [8] 81.8% | viability, T/C (second compound 3.16 µM, first compound 0.000999 µM) 103% | viability, T/C (second compound 3.16 µM, first compound 0.00316 µM) 97% | viability, T/C (second compound 3.16 µM, first compound 0.00999 µM) 122% | viability, T/C [9] 125% | viability, T/C (second compound 3.16 µM, first compound 0.0999 µM) 124% | viability, T/C [10] 95.9% | viability, T/C (second compound 10 µM, first compound 0.000999 µM) 112% | viability, T/C (second compound 10 µM, first compound 0.00316 µM) 89.3% | viability, T/C (second compound 10 µM, first compound 0.00999 µM) 110% | viability, T/C [11] 97.1% | viability, T/C (second compound 10 µM, first compound 0.0999 µM) 91.6% | viability, T/C [12] 90.1%
> 0.316 µM: IC50 (second compound 0.0316 µM) | IC50 (second compound 0.1 µM) | IC50 (second compound 0.316 µM) | IC50 (second compound 1 µM) | IC50 (second compound 3.16 µM) | IC50 (second compound 10 µM)

CC(C)n1c(=O)n(C)c2cnc3cc(F)c(-c4ccc(OCCCN5CCCCC5)nc4)cc3c21 + Cc1[nH]c2ccc(F)cc2c1-c1nc2c3cccnc3c3ncccc3c2[nH]1
> 10 µM: IC50 (second compound 0.0316 µM) | IC50 (second compound 0.1 µM) | IC50 (second compound 0.316 µM) | IC50 (second compound 1 µM) | IC50 (second compound 3.16 µM)
9.86 µM: IC50 (second compound 10 µM)
inactive: viability, T/C [1] 90.2% | viability, T/C [13] 94.3% | viability, T/C [2] 98.1% | viability, T/C [14] 75.2% | viability, T/C [15] 86.7% | viability, T/C [16] 54.3% | viability, T/C [3] 85.9% | viability, T/C [17] 103% | viability, T/C [4] 124% | viability, T/C [18] 96.5% | viability, T/C [19] 83.1% | viability, T/C [20] 58.3% | viability, T/C [5] 106% | viability, T/C [21] 98.8% | viability, T/C [6] 105% | viability, T/C [22] 94.2% | viability, T/C [23] 84.4% | viability, T/C [24] 52.4% | viability, T/C [7] 83% | viability, T/C [25] 97.7% | viability, T/C [8] 118% | viability, T/C [26] 115% | viability, T/C [27] 98.8% | viability, T/C [28] 58.1% | viability, T/C [9] 89.9% | viability, T/C [29] 107% | viability, T/C [10] 89.5% | viability, T/C [30] 111% | viability, T/C [31] 94.4% | viability, T/C [32] 56.9% | viability, T/C [11] 96.8% | viability, T/C [33] 107% | viability, T/C [12] 98% | viability, T/C [34] 84.8% | viability, T/C [35] 96.8% | viability, T/C [36] 49.5%

C=CC(=O)N1CCN(c2nc(=O)n(-c3c(C)ccnc3C(C)C)c3nc(-c4c(O)cccc4F)c(F)cc23)C(C)C1 (stereo unspecified) + Cc1[nH]c2ccc(F)cc2c1-c1nc2c3cccnc3c3ncccc3c2[nH]1
> 10 µM: IC50 (second compound 0.0316 µM) | IC50 (second compound 0.1 µM) | IC50 (second compound 0.316 µM) | IC50 (second compound 1 µM) | IC50 (second compound 3.16 µM) | IC50 (second compound 10 µM)
inactive: viability, T/C [1] 85% | viability, T/C [13] 63.2% | viability, T/C [2] 62% | viability, T/C [14] 56% | viability, T/C [15] 67.1% | viability, T/C [16] 75.7% | viability, T/C [3] 72.9% | viability, T/C [17] 85% | viability, T/C [4] 60.5% | viability, T/C [18] 56.7% | viability, T/C [19] 66.2% | viability, T/C [20] 78.3% | viability, T/C [5] 67.3% | viability, T/C [21] 80.1% | viability, T/C [6] 63.1% | viability, T/C [22] 64.6% | viability, T/C [23] 74.2% | viability, T/C [24] 69.9% | viability, T/C [7] 67.8% | viability, T/C [25] 69.4% | viability, T/C [8] 66.2% | viability, T/C [26] 79.8% | viability, T/C [27] 63.7% | viability, T/C [28] 86.8% | viability, T/C [9] 73% | viability, T/C [29] 81.1% | viability, T/C [10] 73.8% | viability, T/C [30] 78.4% | viability, T/C [31] 74.7% | viability, T/C [32] 69.9% | viability, T/C [11] 74.4% | viability, T/C [33] 71.5% | viability, T/C [12] 72.5% | viability, T/C [34] 67.1% | viability, T/C [35] 77.6% | viability, T/C [36] 59.4%
